From publication PMC7179958 (CPT: Pharmacometrics & Systems Pharmacology, 2020)

Assays:
[1] = Semimechanistic PBPK model simulation in simulated healthy volunteers; parameters: species or system human
Excerpt: Uptake is inhibited by the opposing drug in X 3 via the respective uptake concentration at half of the maximum uptake velocity (K m.up.X) shown as the inhibition constant (K I.up). Passive movement of drug into and out of the liver is through clearances P dif.X and P def.X, respectively. Both drugs are cleared through biliary excretion (CLbi.X) into the gallbladder (X 5), and into X 2 where they can be reabsorbed.
The micro‐rate constants for transporter‐mediated uptake and passive uptake were scaled to macro‐rate constants (see Table 2 ) and then empirically scaled up to the human body (83 kg, healthy adult; ^23 see Table 2 ).
The ODE PBPK model (see Figure 1 for schematic and Supplemental Material for the set of ODEs) was developed using desolve ^27 in R‐studio (v1.1.463, R‐Studio Inc., Boston, MA) running R‐project version 3.6.0 ^28 and was similar to that used for eltrombopag and rosuvastatin. ^5 All figures in this article were generated either within Inkscape (0.93, Inkscape.org, Boston, MA) or cowplot, ggplot2, ^29 , ^30 extrafont, ^31 and Cairo. ^32

[2] = Fraction unbound in hepatocytes, Rapid Equilibrium Dialysis (RED) device; format: in vitro ADME; details: human, heat inactivated hepatocytes
Procedure: Fraction Unbound in Hepatocytes. The estimation of the fraction unbound in hepatocytes at equilibrium can be obtained using multiple techniques: heat inactivated hepatocytes (3); linear regression obtained using the logD7.4 (4); parameter estimation (1, 3, 5, 6) or as separate binding rate constants determined experimentally (7). […] The RED device works with low volumes across a medium chamber (500 µL, white) and incubation chamber containing the hepatocytes (300 µL, red), and as such has been reported to even out the non-specific binding (NSB) between the membrane and wells, thereby improving recovery (8). The free fraction in the incubation (fu.inc) is calculated as:
fu.inc= [medium chamber] Whiteincubation chamber(Red) . (Eq.S1)
The amount of non-specific binding (NSB) to the labware is important to understand the recovery from the RED device experiment to evaluate the reliability of fu.inc: […]

[3] = Uptake of pitavastatin and eltrombopag in cryopreserved human hepatocytes (oil spin method), comeasurement, micro‐rate constant mechanistic model; format: in vitro ADME; details: human; model 1; conditional mode (minimum‐maximum) for 1 × 10^6 cells
Procedure: (§1) Human hepatocytes were obtained from BioIVT (Brussels, Belgium; lot number: LYB; 10 donor LiverPool (8 Caucasians, 1 African American, and 1 Hispanic) and thawed according to supplier guidelines in Leibovitz L15 medium. Hepatocytes were kept on ice prior to use and were used within 3 hours of defrosting.
(§2) Cells were separated using an oil spin method similar to the literature. ^11 , ^17 After separation, the tubes were frozen on dry ice and the bottom layer was cut off.
(§3) A dilution factor of 100 was used to scale from pmol/mL/1 × 10^5 cells to nmol/mL/1 × 10^6 cells.
(§4) Passive rate constants for movement into and out of the cell (k f.X and k bX, respectively) as well as uptake transporter‐mediated rate constants for association to the transporter (k aX) and dissociation (k dX) and translocation (k tX) from the transporter into the medium and cell, respectively. […] The sets of ODEs for all the models (models 1–4; Table 1 ) tested for structural identifiability and used for parameter estimation are included in the Supplemental Material .
(§5) Parameter estimation was conducted within Monolix 2018 R2 (Lixoft, Antony, France) for each concentration and experiment as an individual data set, where to ensure positivity, a log‐normal distribution was assumed for each parameter, with a proportional residual error model for the observations.
(§6) Hepatocyte Incubations. […] Eltrombopag was dissolved in DMSO to give 30 µmol/mL, then diluted 333-fold to 90 nmol/mL in Leibovitz L15 medium. […] Briefly, 0.5 mL microtubes (12049877, Thermo-Fisher Scientific, Gothenburg, Sweden) layered with 15 µL of 4 % cesium chloride onto which 140 µL of 8:2 silicone oil: mineral oil, with oil red O was added. Samples were taken by transferring 100 µL of hepatocyte suspension into the microtube and spun for 15 s in a Minispin centrifuge (Eppendorf, Horsholm, Denmark), during which time the hepatocytes passed through the oil into the cesium chloride bottom layer. The tubes were then frozen on dry ice and the bottom layer cut off once frozen into a 1 mL deep well plate (260252, Thermo-Fisher Scientific, Gothenburg, Sweden).
(§7) Sample Extraction. 50 µL of water suitable for UPLC (MilliQ ELGA water, Merck-Millipore, Solna, Sweden) and 150 µL of stop solution (50:50 MeOH:MeCN, containing 0.8 % formic acid and 4 pmol/mL 5,5-diethyl-1,3-diphenyl-2-iminobarbituric acid as internal standard) were added to the frozen samples of the cut-off tube bottoms. Samples were mixed on a plate shaker for 1 h and then stored at – 80 °C overnight. Prior to analysis, samples were defrosted and mixed for 30 min before centrifugation of the plates at 4000 g for 20 min at 4 °C. Samples were transferred to a conical bottomed 96 well plate for analysis (249944, Thermo-Fisher Scientific, Gothenburg, Sweden) and diluted 1:1 with MilliQ ELGA water.
(§8) Mechanistic Modeling. […] An estimate for the total amount of transporters (To) can be obtained during the mechanistic modeling process (9, 10), and therefore Tf can be replaced using the conservation law during parameter estimation:
(§9) Parameter estimation for all model were conducted within the Monolix suite 2018 R2 (Lixoft, Antony, France) where to ensure positivity, a log-normal distribution was assumed for each parameter in the candidate models, together with a proportional residual error model for the observations.

[4] = system: human hepatocytes; assay: as above; format: in vitro ADME
Procedure: as §1, §2, §3, §4, §5, §6, §7, §8, §9

[5] = cited from earlier work
[6] = system: human hepatocytes; details: cited from earlier work
[7] = system: OATP1B1 and OATP1B3; details: OATP1B1 and OATP1B3, in vitro; cited from earlier work
[8] = Plasma protein binding and blood:plasma ratio (literature); format: in vitro ADME; details: blood; fu.pl.P/Bl:Pl, Eq. 15, from literature values 3, 24
[9] = Static R value for clinical TrDDI (FDA guidance); parameters: species or system human; details: for R value, static model: eltrombopag perpetrator (75 mg), pitavastatin victim, Eq. 2, FDA cut‐off 1.1
[10] = model 1, conditional mode (minimum‐maximum) for 1 × 10^6 cells
[11] = model 1 micro‐rate constants, conditional mode (minimum‐maximum) for 1 × 10^6 cells
[12] = human hepatocytes over 70 seconds

With `O=C(O)C[C@H](O)C[C@H](O)/C=C/c1c(C2CC2)nc2ccccc2c1-c1ccc(F)cc1` [pitavastatin, pitavastatin calcium] the “CLmet.X, metabolic clearance” value ([1]; PBPK model value, Eqs. 10 and 11) was 93 mL/min/liver, the “CLbi.X, biliary clearance” value ([1]; PBPK model value, Eqs. 12 and 13) was 165 mL/min/liver and the clearance ([1]; human, plasma and urine, PBPK model value, Eq. 14) was 12 mL/min. For the same compound, the “K a.X, first‐order absorption rate constant” value ([1]; pitavastatin, from mean residence time PO and IV, Eq. 5) was 0.07 min⁻¹, the fraction unbound ([2]; RED device, overnight, pitavastatin 0.3, 10 and 100 nmol/ml, eltrombopag 30 nmol/ml, read-out: f u.inc, fraction unbound in the incubation) was 0.9 and the fraction unbound ([2]; pitavastatin, estimated from RED f u.inc, Eq. 16, read-out: f u.L.X, fraction unbound in the liver) was 0.026. The recovery ([2]; RED device, read-out: analytical recovery) was 55%, the k el [3] was 0.00367 s⁻¹ and the “F T.X, fraction transported” value ([4]; CLup.X/(CLup.X+Pdif.X), Eq. 4) was 0.96 (0.94–0.98). The “effect of pitavastatin on cellular eltrombopag” value ([4]; experimental data, except at a pitavastatin incubation of 30–100 nmol/mL) was “No effect”, the “K m.up.X or K I.up.X” value ([4]; from micro‐rate constants, Eq. 7) was 9,525 ng/mL and the “P def.X” value ([4]; k bX scaled to a clearance) was 0.62 (0.55‐0.67) µL/min/1 × 10^6 cells. For the same compound, the “P dif.X” value ([4]; k fX scaled to a clearance) was 0.55 (0.46–0.61) µL/min/1 × 10^6 cells, the “k bX, passive rate constant out of the cell” value [4, 10] was 0.21 (0.18–0.22) /min and the “k fX, passive rate constant into the cell” value [4, 10] was 5.5 × 10^−4 (4.6 × 10^−4–6.1 × 10^−4) /min. The “k aX, transporter association rate constant” value [4, 11] was 0.17 (0.14–0.25) /nmol/min, the “k dX, transporter dissociation rate constant” value [4, 11] was 2.2 (1.97–2.37) /min and the “k tX, transporter translocation rate constant” value [4, 11] was 1.65 (1.57–1.74) /min. For the same compound, the “V max.up..X, maximum uptake velocity” value ([4]; scaled to whole liver, Eq. 6) was 3.0 × 10^7 ng/min/liver, the “P dif.X, passive diffusion into the cell” value ([4]; scaled to whole liver, Eq. 8) was 118 mL/min/liver and the “P def.X, passive diffusion out of the cell” value ([4]; scaled to whole liver, Eq. 9) was 104 mL/min/liver. For the same compound, the V max.up ([4]; transporter rate constants transformed, Eq. 6) was 302 (177–639) pmol/min/1 × 10^6 cells, the K m.up ([4]; transporter rate constants transformed, Eq. 7) was 22.1 (16.7–25.5) nmol/mL and the “biliary elimination of pitavastatin” value [5] was 53%. For the same compound, the “AUC0−∞ (literature)” value ([5]; pitavastatin only, oral 1 mg, converted to blood concentration, mean ± SD) was 68 ± 49 ng·h/mL, the Cmax ([5]; pitavastatin only, oral 1 mg, healthy volunteers, converted to blood concentration, mean ± SD) was 38.8 ± 21.9 ng/mL and the “tmax (h)” value ([5]; pitavastatin only, oral 1 mg, healthy volunteers) was 1 (0.5–1) h. For the same compound, the “V c.X, volume of the central compartment” value ([5]; pitavastatin, total blood volume) was 5820. Total blood volume [ ^23 ] mL, the “K m.up.P (literature)” value [6] was 1.4 to 2 µM and the “P dif.P (literature)” value [6] was 0.4–13 µL/min/1 × 10^6 cells. The “V max.up.P (literature)” value [6] was 65–354 pmol/min/1 × 10^6 cells, the “k aP (literature)” value [6, 12] was 7.4 (51%) /nmol/min/1 × 10^6 cells and the “k dP (literature)” value [6, 12] was 6.3 /min/1 × 10^6 cells. The “k tP (literature)” value [6, 12] was 4.3 (85%) /min/1 × 10^6 cells, the “P def.P (literature, micro‐rate constants)” value ([6]; ref Grandjean et al. 11) was 0.89 (27%) µL/min/1 × 10^6 cells and the fraction transported [7] was 0.78. The fraction unbound [8] was 0.009, the “R value, static model” value [9] was 1.07 and the “R value, static model” value ([9]; listed as Pitavastatin) was 1.06–1.07. For the same compound, the “estimated I in.max” value ([9]; pitavastatin as perpetrator, clinical dose 1–4 mg) was 0.5 to 3 nmol/mL.
